Several values for one entry are separate records, joined by “and”; a condition that tells them apart may be missing. Equal entries are not always repeated. Toxic doses and inconclusive results are not listed. Rule as the data show it: active = T/C of 150% or more; inactive = T/C below 125%. Square brackets hold non-standard residues; d marks the D form. Peptide text beside a SMILES is read from it. * marks the point of attachment. ξ: configuration not given here. Tos = Cc1ccc(S(=O)(=O)*)cc1; ξY = NC(Cc1ccc(O)cc1)C(=O)O
Tested on: L1210 leukemia ip in BDF1 mice, survival T/C
Assay: NCI In Vivo Anticancer Drug Screen. Data for tumor model L1210 Leukemia (intraperitoneal) in B6D2F1 (BDF1) mice
Settings: higher = longer survival
Method in brief: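 Mice bearing the transplanted tumor received compound or vehicle. Survival of the treated group was divided by that of the vehicle-treated control group to give the ratio.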

[1] = endpoint: mean survival time, dose: 100.0 mg/kg/injection, schedule: Q01DX009 (ip), vehicle: saline with Tween-80
[2] = endpoint: mean survival time, dose: 200.0 mg/kg/injection, schedule: Q01DX009 (ip), vehicle: saline with Tween-80
[3] = endpoint: mean survival time, dose: 400.0 mg/kg/injection, schedule: Q01DX009 (ip), vehicle: saline with Tween-80
[4] = endpoint: mean survival time, dose: 100.0 mg/kg/injection, schedule: Q04DX003 (ip), vehicle: saline with Tween-80
[5] = endpoint: mean survival time, dose: 200.0 mg/kg/injection, schedule: Q04DX003 (ip), vehicle: saline with Tween-80
[6] = endpoint: mean survival time, dose: 400.0 mg/kg/injection, schedule: Q04DX003 (ip), vehicle: saline with Tween-80
[7] = endpoint: mean survival time, dose: 100.0 mg/kg/injection, schedule: Q04DX003 (ip), vehicle: Klucel (hydroxypropylcellulose) (HPC)
[8] = endpoint: mean survival time, dose: 200.0 mg/kg/injection, schedule: Q04DX003 (ip), vehicle: Klucel (hydroxypropylcellulose) (HPC)
[9] = endpoint: mean survival time, dose: 400.0 mg/kg/injection, schedule: Q04DX003 (ip), vehicle: Klucel (hydroxypropylcellulose) (HPC)
[10] = endpoint: mean survival time, dose: 100.0 mg/kg/injection, schedule: Q04DX002 (ip), vehicle: Klucel (hydroxypropylcellulose) (HPC)
[11] = endpoint: mean survival time, dose: 200.0 mg/kg/injection, schedule: Q04DX002 (ip), vehicle: Klucel (hydroxypropylcellulose) (HPC)
[12] = endpoint: mean survival time, dose: 400.0 mg/kg/injection, schedule: Q04DX002 (ip), vehicle: Klucel (hydroxypropylcellulose) (HPC)
[13] = endpoint: mean survival time, dose: 100.0 mg/kg/injection, schedule: Q01DX001 (ip), vehicle: saline
[14] = endpoint: mean survival time, dose: 200.0 mg/kg/injection, schedule: Q01DX001 (ip), vehicle: saline
[15] = endpoint: mean survival time, dose: 400.0 mg/kg/injection, schedule: Q01DX001 (ip), vehicle: saline
[16] = endpoint: mean survival time, dose: 100.0 mg/kg/injection, schedule: Q01DX009 (ip), vehicle: Klucel (hydroxypropylcellulose) (HPC)
[17] = endpoint: mean survival time, dose: 200.0 mg/kg/injection, schedule: Q01DX009 (ip), vehicle: Klucel (hydroxypropylcellulose) (HPC)
[18] = endpoint: mean survival time, dose: 400.0 mg/kg/injection, schedule: Q01DX009 (ip), vehicle: Klucel (hydroxypropylcellulose) (HPC)
[19] = endpoint: mean survival time, dose: 50.0 mg/kg/injection, schedule: Q01DX009 (ip), vehicle: saline with Tween-80
[20] = endpoint: mean survival time, dose: 100.0 mg/kg/injection, schedule: Q01DX001 (ip), vehicle: carboxymethylcellulose (CMC)
[21] = endpoint: mean survival time, dose: 200.0 mg/kg/injection, schedule: Q01DX001 (ip), vehicle: carboxymethylcellulose (CMC)
[22] = endpoint: mean survival time, dose: 400.0 mg/kg/injection, schedule: Q01DX001 (ip), vehicle: carboxymethylcellulose (CMC)
[23] = endpoint: mean survival time, dose: 10.0 mg/kg/injection, schedule: Q01DX001 (ip), vehicle: saline
[24] = endpoint: mean survival time, dose: 20.0 mg/kg/injection, schedule: Q01DX001 (ip), vehicle: saline

Measured: T/C

COc1ccc(CSc2ncnc3nc[nH]c23)cc1
inactive: endpoint: mean survival time, dose: 6.0 mg/kg/injection, schedule: Q01DX015 (ip), vehicle: carboxymethylcellulose (CMC) 92 % of control | endpoint: mean survival time, dose: 12.0 mg/kg/injection, schedule: Q01DX015 (ip), vehicle: carboxymethylcellulose (CMC) 91 % of control | endpoint: mean survival time, dose: 25.0 mg/kg/injection, schedule: Q01DX015 (ip), vehicle: carboxymethylcellulose (CMC) 101 % of control | endpoint: mean survival time, dose: 50.0 mg/kg/injection, schedule: Q01DX015 (ip), vehicle: carboxymethylcellulose (CMC) 101 % of control | endpoint: mean survival time, dose: 200.0 mg/kg/injection, schedule: Q01DX015 (ip), vehicle: carboxymethylcellulose (CMC) 111 % of control

O=C(O)C1CC(O)CN1 (centres undefined)
inactive: endpoint: mean survival time, dose: 12.5 mg/kg/injection, schedule: Q04DX002 (ip), vehicle: saline 110 % of control and 107 % of control | endpoint: mean survival time, dose: 25.0 mg/kg/injection, schedule: Q04DX002 (ip), vehicle: saline 106 % of control and 97 % of control | endpoint: mean survival time, dose: 50.0 mg/kg/injection, schedule: Q04DX002 (ip), vehicle: saline 100 % of control and 110 % of control | endpoint: median survival time, dose: 25.0 mg/kg/injection, schedule: Q01DX009 (ip), vehicle: saline 102 % of control | endpoint: median survival time, dose: 50.0 mg/kg/injection, schedule: Q01DX009 (ip), vehicle: saline 103 % of control | endpoint: median survival time, dose: 100.0 mg/kg/injection, schedule: Q01DX009 (ip), vehicle: saline 108 % of control | endpoint: median survival time, dose: 200.0 mg/kg/injection, schedule: Q01DX009 (ip), vehicle: saline 112 % of control | endpoint: median survival time, dose: 400.0 mg/kg/injection, schedule: Q01DX009 (ip), vehicle: saline 114 % of control

OCC1CC=CCC1 (centres undefined)
inactive: [1] 105 % of control | [2] 106 % of control | [3] 117 % of control

CCCCCC/C=C/C(=O)OCC
inactive: [4] 96 % of control | [5] 101 % of control | [6] 101 % of control

O=c1ccc2cc(Br)ccc2o1
inactive: [7] 97 % of control | [8] 95 % of control | [9] 97 % of control

FC(F)(F)c1cccc(N2N=NC3CC/C(=C\c4ccccc4)C32N2CCOCC2)c1 (centres undefined)
inactive: [10] 97 % of control | [11] 90 % of control | [12] 93 % of control

COC(=O)CCCCCC(O)C1CCC2OC(=O)CC21C (centres undefined)
inactive: [1] 95 % of control | [7] 94 % of control | [2] 95 % of control | [8] 100 % of control | [3] 91 % of control | [9] 93 % of control

CC1(C)OC2C(CNS(C)(=O)=O)OC(n3cnc4c(N)ncnc43)C2O1 (centres undefined)
inactive: [13] 102 % of control | [14] 98 % of control | [15] 101 % of control

C[SiH]1c2ccccc2CCc2ccccc21
inactive: [16] 102 % of control | [7] 104 % of control | [17] 104 % of control | [8] 105 % of control | [18] 106 % of control | [9] 107 % of control

C1CCC(C2=NC3CCCCC3SC2)CC1 (centres undefined)
inactive: endpoint: mean survival time, dose: 100.0 mg/kg/injection, schedule: Q04DX002 (sc), vehicle: olive oil, sesame oil, peanut oil 103 % of control | endpoint: mean survival time, dose: 200.0 mg/kg/injection, schedule: Q04DX002 (sc), vehicle: olive oil, sesame oil, peanut oil 107 % of control | endpoint: mean survival time, dose: 400.0 mg/kg/injection, schedule: Q04DX002 (sc), vehicle: olive oil, sesame oil, peanut oil 96 % of control

Cc1ccc(S(=O)(=O)NCC(=O)NC(Cc2ccc(O)cc2)C(=O)O)cc1 (stereo not drawn) (Tos-Gly-[ξY]-OH)
inactive: endpoint: mean survival time, dose: 100.0 mg/kg/injection, schedule: Q01DX009 (ip), vehicle: other 105 % of control | endpoint: mean survival time, dose: 200.0 mg/kg/injection, schedule: Q01DX009 (ip), vehicle: other 102 % of control | endpoint: mean survival time, dose: 400.0 mg/kg/injection, schedule: Q01DX009 (ip), vehicle: other 104 % of control

N=C(CC(=O)Nc1ccccn1)c1ccccc1
inactive: endpoint: mean survival time, dose: 100.0 mg/kg/injection, schedule: Q01DX001 (ip), vehicle: other 100 % of control | endpoint: mean survival time, dose: 200.0 mg/kg/injection, schedule: Q01DX001 (ip), vehicle: other 107 % of control | endpoint: mean survival time, dose: 400.0 mg/kg/injection, schedule: Q01DX001 (ip), vehicle: other 89 % of control

O=C(COc1ccc(Cl)cc1Cl)Nc1ccccc1F
inactive: [19] 92 % of control | [1] 98 % of control and 87 % of control | [2] 89 % of control | [3] 95 % of control

Cc1cccc(Cl)c1NC(=O)c1cccc(C(=O)Nc2c(C)cccc2Cl)c1
inactive: [16] 96 % of control | [17] 94 % of control | [18] 91 % of control

CCC(C(O)c1ccccc1)C(O)(C(F)(F)F)C(F)(F)F (centres undefined)
inactive: endpoint: mean survival time, dose: 75.0 mg/kg/injection, schedule: Q01DX009 (ip), vehicle: saline with Tween-80 100 % of control | endpoint: mean survival time, dose: 150.0 mg/kg/injection, schedule: Q01DX009 (ip), vehicle: saline with Tween-80 106 % of control | endpoint: mean survival time, dose: 300.0 mg/kg/injection, schedule: Q01DX009 (ip), vehicle: saline with Tween-80 103 % of control

CS(C)=O.CS(C)=O.CS(C)=O.[Cl][Rh]([Cl])[Cl]
inactive: endpoint: mean survival time, dose: 6.25 mg/kg/injection, schedule: Q01DX009 (ip), vehicle: saline 106 % of control | endpoint: mean survival time, dose: 12.5 mg/kg/injection, schedule: Q01DX009 (ip), vehicle: saline 98 % of control | endpoint: mean survival time, dose: 15.0 mg/kg/injection, schedule: Q01DX009 (ip), vehicle: saline 107 % of control | endpoint: mean survival time, dose: 40.0 mg/kg/injection, schedule: Q01DX009 (ip), vehicle: saline 104 % of control | endpoint: mean survival time, dose: 100.0 mg/kg/injection, schedule: Q04DX003 (ip), vehicle: saline 96 % of control | endpoint: mean survival time, dose: 200.0 mg/kg/injection, schedule: Q04DX003 (ip), vehicle: saline 89 % of control

Cc1ccc(S(=O)(=O)NNC(=O)c2cc(C)c(C)cc2N)cc1
inactive: [13] 97 % of control | [14] 101 % of control | [15] 95 % of control

O=S(=O)(NC(=S)Nc1ccc(Cl)cc1)c1ccccc1
inactive: [4] 110 % of control | [5] 107 % of control | [6] 93 % of control

Nc1ccccc1C(=O)O
inactive: endpoint: mean survival time, dose: 50.0 mg/kg/injection, schedule: Q01DX001 (ip), vehicle: carboxymethylcellulose (CMC) 98 % of control | [20] 91 % of control | endpoint: mean survival time, dose: 178.0 mg/kg/injection, schedule: Q01DX001 (ip), vehicle: carboxymethylcellulose (CMC) 92 % of control | [21] 91 % of control | endpoint: mean survival time, dose: 267.0 mg/kg/injection, schedule: Q01DX001 (ip), vehicle: carboxymethylcellulose (CMC) 94 % of control | [22] 92 % of control | endpoint: mean survival time, dose: 600.0 mg/kg/injection, schedule: Q01DX001 (ip), vehicle: carboxymethylcellulose (CMC) 92 % of control

Oc1ccccc1-c1nc2ccccc2[nH]1
inactive: [10] 109 % of control | [11] 98 % of control | [12] 95 % of control

CN(C)CSc1ccccc1
inactive: [23] 101 % of control | [24] 110 % of control | endpoint: mean survival time, dose: 40.0 mg/kg/injection, schedule: Q01DX001 (ip), vehicle: saline 104 % of control | endpoint: mean survival time, dose: 80.0 mg/kg/injection, schedule: Q01DX001 (ip), vehicle: saline 98 % of control

CCOC(=O)N1C=Cc2ccccc2C1C#N (centres undefined)
inactive: [20] 124 % of control | [21] 98 % of control | [22] 93 % of control

CCC1CN2N=Cc3ccccc3C2=N1 (centres undefined)
inactive: [23] 105 % of control | [24] 103 % of control

NCc1c(Cl)c(Cl)c(CN)c(Cl)c1Cl
inactive: [19] 96 % of control | endpoint: mean survival time, dose: 50.0 mg/kg/injection, schedule: Q04DX003 (ip), vehicle: saline with Tween-80 92 % of control | [1] 94 % of control | [4] 92 % of control | [2] 88 % of control | [5] 105 % of control

CC12CC(O)C3C(CCC4CC(O)CCC43C)C1CCC2C(=O)CO (centres undefined)
inactive: endpoint: mean survival time, dose: 100.0 mg/kg/injection, schedule: Q01DX001 (sc), vehicle: steriod suspending solution 102 % of control | endpoint: mean survival time, dose: 200.0 mg/kg/injection, schedule: Q01DX001 (sc), vehicle: steriod suspending solution 104 % of control | endpoint: mean survival time, dose: 400.0 mg/kg/injection, schedule: Q01DX001 (sc), vehicle: steriod suspending solution 102 % of control

Reference: PubChem BioAssay AID248 (DTP/NCI, 2004)
